US20240350489A1, “LOU064 FOR TREATING MULTIPLE SCLEROSIS” (NOVARTIS AG, priority 2021, published 2024)
Entries after “also recorded” stand apart in the source; their conditions may differ.

Assays:
[1] = 52-week open label extension study in CSU subjects, safety; conditions: for safety signals / safety profile: 100 mg b.i.d. open-label, interim analyses
Protocol: In a 52-week open label extension study to evaluate the long-term safety and tolerability of LOU064 in eligible subjects with CSU who participated in the Phase 2b study the dose used was 100 mg b.i.d.

[2] = test system: RatMOG-induced EAE; assay: RatMOG-induced EAE, short eight-day (pre-disease) protocol; parameters: species or system mouse; conditions: dosed in vivo 8 days; LOU064 1, 3 and 10 mg/kg
Protocol: Isolated draining lymph node cells were incubated in vitro with RatMOG for 48 hours. Antigen-specific proliferation was determined by [^3H]-thymidine incorporation. Animals dosed in vivo with BTK inhibitors (LOU064, ibrutinib or Cyclosporin A (CsA) for 8 days. Group sizes n=4-5 per treatment.
To elucidate further whether BTK inhibitor efficacy was directly linked to reduction in B-cell antigen-presenting function compounds were tested in recombinant RatMOG-induced EAE model. This EAE model shares many of the characteristics of recombinant HumanMOG-induced EAE with MOG-specific T-cells infiltrating the CNS and resulting in neurological paralysis. However, RatMOG-induced EAE is B-cell independent and the dendritic cells are the dominant antigen-presenting cells type. Therefore, BTK inhibitors would be predicted to have no significant efficacy in RatMOG-induced EAE unless drug treatment was associated with a broader, non-specific, immune suppression. In addition to LOU064, which was used at 1 mg/kg, 3 mg/kg and 10 mg/kg, the reference compound ibrutinib was tested.
Cyclosporin A (CsA) acted as a positive control for direct T-cell immunosuppression. […] Ex vivo MOG-induced recall proliferation responses were studied using isolated splenocytes collected on day 8 post-immunization. In vivo BTK inhibitor treatment had no effect on recall responses (FIG. 12).

[3] = Phase 2b trial in CSU, efficacy over 12 weeks; type: in vivo, human; conditions: 25 mg b.i.d. regimen
Protocol: In a Phase 2b, randomized, double-blind, placebo-controlled trial evaluating the efficacy and safety of LOU064 over 12 weeks in patients inadequately controlled by Hi-antihistamines, with at least moderately active CSU, patients received LOU064 10 mg q.d. (once daily), 35 mg q.d., 100 mg q.d., 10 mg b.i.d. (twice daily), 25 mg b.i.d., 100 mg b.i.d., or placebo (1:1:1:1:1:1:1 ratio).

[4] = target: T1, BTK (Mus musculus, UniProt P35991); assay: BTK occupancy in spleen, lymph nodes and brain homogenate, HumanMOG EAE; type: in vivo
T1 construct: from tissue; host or cells: spleen, inguinal lymph nodes, blood and brain homogenate of C57BL/6 EAE mice
T1 sequence (P35991 whole entry): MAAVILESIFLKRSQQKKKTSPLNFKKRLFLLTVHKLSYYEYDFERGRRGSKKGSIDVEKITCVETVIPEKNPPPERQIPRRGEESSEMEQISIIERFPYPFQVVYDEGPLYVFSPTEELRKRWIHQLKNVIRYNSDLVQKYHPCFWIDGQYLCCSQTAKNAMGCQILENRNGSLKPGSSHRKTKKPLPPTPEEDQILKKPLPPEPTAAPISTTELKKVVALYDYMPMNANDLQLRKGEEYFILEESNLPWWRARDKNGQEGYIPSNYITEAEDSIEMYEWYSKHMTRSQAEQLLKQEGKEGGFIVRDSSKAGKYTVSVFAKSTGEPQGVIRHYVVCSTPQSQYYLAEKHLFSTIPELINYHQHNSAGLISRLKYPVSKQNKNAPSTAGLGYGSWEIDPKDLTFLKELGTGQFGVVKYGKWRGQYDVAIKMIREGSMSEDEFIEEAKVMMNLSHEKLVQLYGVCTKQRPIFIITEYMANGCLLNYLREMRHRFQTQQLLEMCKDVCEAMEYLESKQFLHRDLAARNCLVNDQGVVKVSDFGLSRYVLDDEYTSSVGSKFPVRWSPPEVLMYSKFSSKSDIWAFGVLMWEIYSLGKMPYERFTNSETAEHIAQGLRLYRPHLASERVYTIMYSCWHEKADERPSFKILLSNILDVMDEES
Protocol: BTK occupancy in spleen was determined at 1, 5 and 8 hours after b.i.d. oral dosing of LOU064 (FIG. 4).
BTK occupancy was assessed in brain homogenates that had been prepared for compound exposure analysis (FIG. 6). […] Variability in brain BTK occupancy might be due to the fact that the analysis was performed on the remainder of the homogenates prepared for compound level assessment.

[5] = test system: neuroinflammation signature in microglia; assay: scRNA-seq analysis of brains and spinal cords of RatMOG EAE mice; type: in vivo, mouse; conditions: LOU064 vs controls
Protocol: 10X Genomics Chromium raw sequencing reads were processed with Cell Ranger [Zheng, G. et al. (2017), Nat Commun 8, 14049]. All subsequent analyses were carried out in R v4.1 and Bioconductor v3.14, loosely following the guidelines in “Orchestrating single-cell analysis with Bioconductor” [Amezquita, R. A. et al (2020), Nat Methods 17, 137-145] and using the framework provided by the scuttle, scater [Davis J McCarthy et al. (2017), Bioinformatics, Vol 33, 8, 1179-1186] and scran [Lun ATL et al. (2016), F1000 Research, 5:2122;
To correct for library size and composition biases, normalization was performed by pooling cells and deconvoluting size factors, followed by a log2 transformation. […]
For each cell type, pseudobulk differential expression analysis was performed using edgeR [Robinson M D et al. (2010), Bioinformatics, 26(1), 139-140], followed by gene set enrichment analysis with fgsea [Gennady Korotkevich et al., doi: https://doi.org/10.1101/060012] and multiple gene set collection from MSigDB [Arthur Liberson et al., Bioinformatics, Vol 27, 12:1739-1740]. A neuroinflammation signature from the Human Phenotype Ontology [Kohler S. et al. (2021) Nucleic Acids Res. 49(D1):D1207-D1217. doi: 10.1093/nar/gkaa1043] was scored with UCell [Andreatta M. et al. (2021), Comput Struct Biotechnol J. 19:3796-3798] and its significance assessed with a one-tailed Mann-Whitney U test.

[6] = test system: MOG-specific immunoglobulin responses; assay: MOG-specific autoantibodies in serum, RatMOG EAE; type: in vivo, mouse; conditions: 30 mg/kg b.i.d., day 21, vs vehicle
Text: In immunized mice, treated with either vehicle or LOU064, the MOG-specific autoantibody levels, total IgM and IgG subclasses were markedly higher as compared to naive mice. LOU064 treatment had no effect on the MOG-specific IgM and IgG responses in serum compared to vehicle treated mice.

[7] = 100 mg B.I.D., N = 100, interim cut off 31 Aug. 2020
[8] = ES, 100 mg b.i.d., N = 183, listed as remibrutinib
[9] = 3 mg/kg b.i.d., 1, 5 and 8 hours after dosing
[10] = 30 mg/kg b.i.d., 1, 5 and 8 hours after dosing

In the case of `C=CC(=O)N(C)CCOc1c(N)ncnc1-c1cc(F)cc(NC(=O)c2ccc(C3CC3)cc2F)c1C` [LOU064, N-(3-(6-amino-5-(2-(N-methylacrylamido)ethoxy)pyrimidin-4-yl)-5-fluoro-2-methylphenyl)-4-cyclopropyl-2-fluorobenzamide], the Death [1, 7] is reported as 0 n, the “Discontinued study due to an SAE(s)” value [1, 7] is reported as 0 n and the “safety signals / safety profile” value [1] is reported as “No safety signal has been observed; also recorded: no safety signals have been observed; also recorded: well tolerated and with a favorable safety profile”. The “safety signals / safety profile” value ([1]; listed as Remibrutinib) was “no new safety signals”, the “dose-limiting liver enzyme elevations and other off-target-effects” value ([1]; 100 mg b.i.d. over an extended period of time) was “does not induce any dose-limiting liver enzyme elevations and other off-target-effects” and the “AE Headache (PT)” value ([1]; 100 mg b.i.d., N = 100 interim) was 6%. For the same molecule, the “AE Infections and infestations (SOC)” value ([1]; 100 mg b.i.d., N = 100 interim) was 14%, the “AE Skin and subcutaneous tissue disorders (SOC)” value ([1]; 100 mg b.i.d., N = 100 interim) was 13% and the “AE diarrhea (PT)” value ([1]; 100 mg b.i.d., N = 100 interim) was 4%. The “AE dizziness (PT)” value ([1]; 100 mg b.i.d., N = 100 interim) was 3%, the “AE gastroenteritis (PT)” value ([1]; 100 mg b.i.d., N = 100 interim) was 3% and the “bleeding events or events under SOC Blood and lymphatic system disorders” value ([1]; 100 mg b.i.d., N = 100 interim) was “no bleeding events”. For the same molecule, the “ECG findings or QT of >500 ms” value ([1]; ES and CS, any patient) was “no significant ECG findings or QT of >500 ms noted in any patient”, the “AE Headache (PT)” value [1, 8] was 6.6% and the “AE Infections and infestations (SOC)” value [1, 8] was 23.0%. The “AE Skin and subcutaneous tissue disorders (SOC)” value [1, 8] was 17.5%, the “Discontinued study treatment due to AE(s)” value [1, 8] was 6 n and the “Patients with SAE(s)” value [1, 8] was 4 n. The “AE Skin and subcutaneous tissue disorders (SOC)” value ([1]; ES, 100 mg b.i.d., N=183) was 32 n, the “Incidence of AESI bleeding” value ([1]; ES, 100 mg b.i.d., N=183) was 4.4% and the “Incidence of AESI cytopenias” value ([1]; ES, 100 mg b.i.d., N=183) was 0.5%. For the same molecule, the “Incidence of AESI infections” value ([1]; ES, 100 mg b.i.d., N=183) was 23%, the deaths ([1]; ES, 100 mg b.i.d., N=183) was “no deaths” and the “patients with isolated ALT>3xULN” value ([1]; ES, N=183, normalized within 4 weeks) was 1 patient. For the same molecule, the “RatMOG (auto)antigen recall proliferation” value [2] was “failed to inhibit (auto)antigen recall proliferation”, the “efficacy in CSU” value [3] was “particularly effective compared to the other doses” and the “BTK occupancy in lymph nodes” value [4, 9] was “maximal for both doses and showed a decay after a 3 mg/kg dose; also recorded: complete BTK occupancy”. The “BTK occupancy in spleen” value [4, 9] was “maximal for both doses and showed a decay after a 3 mg/kg dose; also recorded: complete BTK occupancy”, the “BTK occupancy in brain homogenate” value ([4]; 3 mg/kg b.i.d., 1 hour timepoint) was “only minimal BTK occupancy” and the “BTK occupancy in brain homogenate” value ([4]; 30 mg/kg b.i.d.) was “maximal BTK occupancy with a decline over the dosing interval”. For the same molecule, the “BTK occupancy in lymph nodes” value [4, 10] was “a more sustained occupancy after the 30 mg/kg dose”, the “BTK occupancy in spleen” value [4, 10] was “a more sustained occupancy after the 30 mg/kg dose” and the “neuroinflammation gene signature in microglia” value [5] was “significant downregulation across most conditions; also recorded: significantly downregulated”. The “MOG-specific IgM and IgG responses in serum” value [6] was “had no effect; also recorded: did not affect”.
